Results published in patent publication US12721912B2, “Radiopharmaceutical compositions for actinium in targeted radionuclide therapy” (Curium US LLC, priority 2024, dated 2026).
Where two headings read alike, the source gives them in different places.

Columns and labels:
[1] = tested on: patients with mCRPC; settings: cited from earlier work
[2] = tested on: patients with mCRPC; settings: cited from earlier work; remark: listed apart in the source
[3] = cited from earlier work
[4] = Metal scavenger (DTPA) formulations: radiochemical stability by radio-TLC at 40° C. (Table 17); type: physicochemical; settings: 11.3 mg/ml sodium ascorbate formulation, 0.0005-0.01 mg/ml DTPA
Description: The mixture was then divided into four samples which were diluted with suitable amount WFI and DTPA solution to achieve concentrations of 0.0005 mg/ml, 0.001 mg/ml, 0.005 mg/ml, and 0.01 mg/ml of DTPA in the final formulations. […] The samples were kept at 40° C.

[5] = Process A / process B injection stored at 5, 22.5, 32.5 and 40° C.: radiochemical purity by radio-TLC (Tables 21, 22); type: physicochemical; settings: 5-40° C.
Description: The radio-TLC method was performed as follows: 5 μl or 10 μl of the sample was spotted onto the application line (1.5 cm from the lower edge of the plate) of a TLC plate (Merck Silica Gel 60 F254, plate size 20×100 mm). The TLC plate was developed in a TLC chamber using 0.1 M citric acid (adjusted to pH 5) as mobile phase. The plate was removed from the chamber when the eluent front reached 7.5 cm distance from the application line. The plates were analyzed with a radio-TLC scanner after secular equilibrium between ^225Ac and daughter nuclides was reached (minimum of 7 hours). […]
In process B, radiolabeling is performed in 11.3 mg/ml sodium ascorbate solution and the 0.04 M HCl is neutralized by adding 1 ml of 0.04 M NaOH solution into the reactor prior to labeling. The final formulation in process B is prepared to an intended radioactivity concentration by diluting with 11.3 mg/ml sodium ascorbate solution.
To compare the processes, ^225Ac-PSMA I&T injection was prepared at around 1 mCi scale using both processes. […] Radioactivity concentration was 468 kBq/ml in process A and 969 kBq/ml in process B. […]
The purity of ^225Ac-PSMA I&T samples was analyzed by the radio-TLC and HPLC fraction collection methods described previously at different time points.

[6] = subgroup of 11 patients with prior ^177Lu-PSMA treatment
[7] = subgroup with prior ^177Lu-PSMA radioligand therapy

(25)-2-[[(1S)-1-carboxylato-5-[[8-[[(5R)-5-carboxylato-5-[[(2R)-2-[[(2R)-2-[[(4R)-4-carboxylato-4-[4,7,10-tris(carboxylatomethyl)-1,4,7,10-tetrazacyclododec-1-yl]butanoyl]amino]-3-(4-hydroxy-3-iodophenyl)propanoyl]amino]-3-phenylpropanoyl]amino]pentyl]amino]-8-oxooctanoyl]amino]pentyl]carbamoylamino]pentanedioate; hydron; actinium-225(3+) [^225Ac-PSMA I&T]
Biochemical response PSA50 ([1]; 1 patient, 8 MBq per cycle): 100% | Major toxicity ([1]; 1 patient, 8 MBq per cycle): xerostomia | Main TAT-related side effect ([1]; already preexisting after 10 cycles of RLT): grade 2 xerostomia | Hematological side effects ([1]; human, in vivo): No TAT-related grade 3/4 hematological side effects | Response ([1]; two cycles after failure of ^177Lu-PSMA-617): encouraging response | Grade 3 anemia after TAT ([2]; 2 of them with grade 2 anemia at baseline): 3 of the 14 patients | Biochemical response PSA50 ([2]; 14 patients, 7.8 MBq per cycle): 50% | Grade 1 nephrotoxicity ([2]; 14 patients, FIG. 13): one | Hematologic toxicity ([2]; 14 patients, FIG. 13): mild | Acute toxicity during hospitalization ([2]; 14 patients): No acute toxicity | Best PSA response after TAT (PSA decline ≥50%) ([2]; 14 patients): 7 patients | Grade 3 leukopenia ([2]; 14 patients): 1 patient | Major toxicity ([2]; 14 patients): xerostomia | Newly diagnosed grade 1 or 2 xerostomia after TAT ([2]; 14 patients): 5 patients | No PSA decline at any time ([2]; 14 patients): Three | No xerostomia at all ([2]; 14 patients): One | PSA decline of any amount ([2]; 14 patients): 11 patients | Preexisting xerostomia after ^177Lu-PSMA, no worsening after TAT ([2]; 14 patients): Eight | Any PSA decline [2, 6]: 8 patients | PSA decline of at least 50% [2, 6]: 5 patients | Any PSA decline [2, 7]: 73% | PSA decline ≥50% [2, 7]: 45% | Absorbed dose, left kidney ([3]; 8.1 MBq, SPECT at 24 h p. i.): 0.18 SV(RBE=5)MBq | Absorbed dose, right kidney ([3]; 8.1 MBq, SPECT at 24 h p. i.): 0.17 SV(RBE=5)MBq | Absorbed dose, small lesion in the right hip ([3]; human, in vivo): 0.26 SV(RBE=5)MBq | Effect of DTPA on the stability [4]: significantly reduce the stability | Radiochemical purity by the radio-TLC method after 120-hour time point [5]: greater than 98%
